Laboratory results reported in US20080146811A1, “Compounds and Methods For Treatment of Thrombosis” (priority 2004, published 2008).

Columns and labels:
Format in all cases: biochemical
factor XIa = factor XIa (Homo sapiens, UniProt P03951); experiment: In vitro inhibition of factor XIa
factor Xa = factor Xa (Homo sapiens, UniProt P00742); experiment: In vitro inhibition of factor Xa
thrombin = thrombin (Homo sapiens, UniProt P00734); experiment: In vitro inhibition of thrombin

Sequence of factor Xa (P00742 235-488 limits assumed): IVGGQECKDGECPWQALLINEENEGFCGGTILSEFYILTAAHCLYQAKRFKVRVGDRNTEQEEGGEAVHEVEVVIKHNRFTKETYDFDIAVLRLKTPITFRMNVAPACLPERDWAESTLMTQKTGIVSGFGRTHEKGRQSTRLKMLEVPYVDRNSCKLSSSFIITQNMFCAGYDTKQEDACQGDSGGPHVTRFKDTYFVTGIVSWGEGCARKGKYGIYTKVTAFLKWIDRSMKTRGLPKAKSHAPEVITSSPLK
Sequence of factor Xa (P00742 41-179 partner limits assumed): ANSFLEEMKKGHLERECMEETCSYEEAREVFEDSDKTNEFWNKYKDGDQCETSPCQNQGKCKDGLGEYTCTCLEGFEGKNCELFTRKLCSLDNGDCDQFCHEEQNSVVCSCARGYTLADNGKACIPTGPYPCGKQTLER
Sequence of factor XIa (P03951 388-625 limits assumed): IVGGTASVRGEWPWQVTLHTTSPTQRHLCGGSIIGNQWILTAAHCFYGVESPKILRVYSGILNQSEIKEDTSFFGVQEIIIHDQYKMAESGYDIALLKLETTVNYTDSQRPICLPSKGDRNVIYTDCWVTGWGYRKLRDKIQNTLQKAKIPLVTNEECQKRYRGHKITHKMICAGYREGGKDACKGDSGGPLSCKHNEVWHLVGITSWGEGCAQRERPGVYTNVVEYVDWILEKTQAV

| Structure (SMILES) | IC50 (factor XIa) | IC50 (factor Xa) | IC50 (thrombin) |
| --- | --- | --- | --- |
| Cc1c(O)cccc1NC(=O)Cn1cc(C(=N)N)c2ccccc21 [Compound 1] | 47.9 µM | 167 µM | > 200 µM |
| C[C@@H](CNC(=O)Cn1cc(C(=N)N)c2ccccc21)c1ccccc1 [Compound 5] | 37.1 µM | 283 µM | > 200 µM |
| N=C(N)c1cn(CC(=O)Nc2cccnc2)c2c(Br)cccc12 [Compound 8] | 0.62 µM | 170 µM | > 200 µM |
| N=C(N)c1cn(CC(=O)Nc2cc(F)cc(F)c2)c2c(Br)cccc12 [Compound 12] | 2.51 µM |  |  |
| N=C(N)c1cn(CC(=O)Nc2ccc3ncccc3c2)c2c(Br)cccc12 [Compound 34] | 1.39 µM |  |  |
| N=C(N)c1cn(CC(=O)Nc2cccnc2)c2cc(CCC(N)=O)ccc12 [Compound 40] | 127 µM |  |  |
| N=C(N)c1cn(CC(=O)Nc2cccnc2)c2c(-c3cccc(O)c3)cccc12 [Compound 46] | 8.09 µM |  |  |
| N=C(N)c1cn(CC(=O)Nc2cccnc2)c2c(/C=C/C(N)=O)cccc12 [Compound 47] | 1.77 µM |  | > 200 µM |
| N=C(N)c1cn(CC(=O)Nc2cccnc2)c2c(/C=C/C(=O)Nc3cccnc3)cccc12 [Compound 54] | 1.99 µM |  |  |
| COC(=O)c1ccc(NC(=O)Cn2cc(C(=N)N)c3cccc(/C=C/C(=O)NC4Cc5ccccc5C4)c32)cc1 [Compound 58] | 3.23 µM |  |  |
| COC(=O)c1ccc(NC(=O)Cn2cc(C(=N)N)c3cccc(/C=C/C(=O)N4CCc5cc(O)c(O)cc5C4)c32)cc1 [Compound 64] | 1.96 µM |  |  |
| N=C(N)c1cn(CC(=O)Nc2ccc(C(=O)O)cc2)c2c(C=CC(=O)NC(Cc3ccc(O)cc3)C(=O)O)cccc12 (stereo not shown) [Compound 70] | 0.042 µM | > 2 µM | > 200 µM |
| N=C(N)c1cn(CC(=O)Nc2ccc(C(=O)O)cc2)c2c(/C=C/C(=O)N[C@H](C(=O)O)c3ccccc3)cccc12 [Compound 77] | 0.093 µM | 67.8 µM | > 200 µM |
| N=C(N)c1cn(CC(=O)Nc2cccnc2)c2c(C(N)=O)cccc12 [Compound 84] | 1.47 µM |  |  |
| CCOC(=O)C1CCCN(C(=O)Cn2cc(C(=N)N)c3cccc(C(=O)N4CCCC(C(=O)OCC)C4)c32)C1 (stereo not shown) [Compound 91] | 3.81 µM |  |  |
| COC(=O)c1ccc(NC(=O)Cn2cc(C(=N)N)c3cccc(C(=O)NCc4ccc(O)c(O)c4)c32)cc1 [Compound 95] | 0.87 µM | 82 µM | 4.2 µM |
| COC(=O)[C@H](CC(C)C)NC(=O)c1cccc2c(C(=N)N)cn(CC(=O)Nc3cccnc3)c12 [Compound 98] | 0.1 µM |  | 3.78 µM |
| N=C(N)c1cn(C(=CC(=O)N2CCNCC2)c2ccccc2)c2ccccc12 [Compound 101] | 6.27 µM |  |  |
| N=C(N)c1cn(C(=CC(=O)N2CCCC(C(=O)O)C2)c2ccccc2)c2ccccc12 (stereo not shown) [Compound 111] | 13.7 µM |  |  |
| COC(=O)c1ccc(Br)cc1-n1cc(C(=N)N)c2ccccc21 [Compound 131] | 1.36 µM | 35.1 µM | 60.2 µM |
| COC(=O)c1ccc(-c2cccc(O)c2)cc1-n1cc(C(=N)N)c2ccccc21 [Compound 135] | 1.62 µM | 15.2 µM | 43.7 µM |
| COC(=O)c1ccc(-c2cccnc2)cc1-n1cc(C(=N)N)c2ccccc21 [Compound 139] | 3.8 µM | 9.65 µM | 73.1 µM |
| COC(=O)c1ccc(NC(=O)c2cccnc2)cc1-n1cc(C(=N)N)c2ccccc21 [Compound 142] | 11.3 µM |  |  |
| N=C(N)c1cn(-c2cc(Br)ccc2C(=O)N2CCNCC2)c2ccccc12 [Compound 144] | 81.7 µM |  |  |
| CON(C)C(=O)c1ccc(Br)cc1-n1cc(C(=N)N)c2ccccc21 [Compound 148] | 134 µM |  |  |
| N=C(N)c1cn(-c2cc(Br)ccc2C(=O)NCc2ccccc2)c2ccccc12 [Compound 150] | 280 µM |  |  |
| N=C(N)c1cn(-c2ccccc2[N+](=O)[O-])c2ccccc12 [Compound 151] | 4.15 µM | 145 µM | 224 µM |
| COC(=O)c1cccc(Oc2ccc([N+](=O)[O-])c(-n3cc(C(=N)N)c4ccccc43)c2)c1 [Compound 154] | 3 µM | 54.7 µM | 20.2 µM |
| N=C(N)c1cn(-c2cc(Cl)ccc2[N+](=O)[O-])c2c(C(=O)Nc3cccnc3)cccc12 [Compound 158] | 1.24 µM | 80.8 µM | > 200 µM |
